Values of other authors in patent US12605362B2, “Eletriptan hydrobromide for treatment of spinal cord injury and improvement of locomotor function” (TECHNOPHAGE, INVESTIGAÇÃO E DESENVOLVIMENTO EM …, priority 2020, dated 2026).

Conditions: in the presence of the selective 5-HT2 antagonists SB204741 and SB242084; cited from earlier work

c1ccc2nc(N3CCNCC3)ccc2c1 [quipazine]
locomotor-like movements: induction in locomotor-like movements
